# Measured values as given in PMC11134387, “Cancer-Stem-Cell Phenotype-Guided Discovery of a Microbiota-Inspired Synthetic Compound Targeting NPM1 for Leukemia” (JACS Au, 2024).
# Several values for one entry are separate records, joined by “and”; a condition that tells them apart may be missing. Identical values can stand only once.
# Experiments:
# [1] = target: T1, NPM1 N-end (pentameric, WT) (Homo sapiens, UniProt P06748); assay: Isothermal titration calorimetry, NPM1 N-end; assay type: binding; settings: ITC, 25 °C
# T1 construct: N-end pentameric domain (residues 1- 130); 6xHis (N); made in house; host or cells: E. coli BL21(DE3)
# T1 sequence (P06748 1-130): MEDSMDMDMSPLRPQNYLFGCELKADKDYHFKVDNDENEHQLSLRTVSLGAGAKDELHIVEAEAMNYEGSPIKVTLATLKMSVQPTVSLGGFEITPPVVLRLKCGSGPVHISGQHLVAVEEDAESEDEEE
# From the text: To confirm a direct interaction of UCM-13369 with NPM1 and to address which domain of the protein would be responsible for binding the compound, pure protein samples of the pentameric N-end domain of NPM1, along with the C-terminal DNA-binding domains of WT and mutant NPM1 C+, were used in calorimetry assays. […] This is indicative of a lower diversity in the chemical environment of amide protons consistent with the previously reported protein unfolding.[29] […] On the other hand, the pentameric construct of the NPM1 N-end, which lacks the AML-related region, yielded a much lower binding affinity (KD ca. 100 μM range, Figure 3D).
# ITC experiments were performed in a Nano ITC Low Volume (TA Instruments) at 25 °C. […]
# The purity of the protein samples was checked by SDS–PAGE analysis (Figure S3) and protein quantification was performed using the Bradford protein assay.5 NPM molar concentration was expressed as the pentameric form for NPM1 WT N-end and as a monomer for NPM1 C-end WT and mutant. […]
# After extraction with acetonitrile and acidification, samples were desalted and concentrated with C18 tips. Mass spectra were recorded in a Hybrid Quadrupole-Orbitrap™ Mass Spectrometer (Thermo Scientific, Waltham, Massachusetts, USA)
# [2] = test system: primary HSCs from WT NPM1 AML patients; assay: CD34+ liquid HSC short-term culture, WT NPM1 AML patients; assay type: cell-based; settings: Homo sapiens, n = 3
# Method: (§1) Considering the inhibitory capacity of UCM-13369 on AML cell lines (shown in Figure 3A), the therapeutic potential was assessed in primary CD34+ cells from AML patients. Two ex vivo models were used from AML patients and healthy donors: CD34+ liquid HSC (hematopoietic stem cell) culture as a short-term model and CFU-E (colony-forming unit–erythroid) as a midterm model.
# (§2) The test compound was diluted in PBS. […]
# Primary cells. 1x10^6/mL total mononuclear bone marrow cells (as source of CD34+ HSCs) of healthy donors and AML patients were used. They were cultured using Stem SpanTM supplement with pencillin/streptomycin (500 U/ml), TPO (10 µg/mL), SCF (10 µg/mL), FLT3 (10 µg/mL), IL-6 (10 µg/mL) and IL-3 (10 µg/mL). After 24 h fresh medium was added. After 72 h in maintenance cells were ready to start the assays. All cells wer e maintained at 37 °C in a humidified incubator in an atmosphere of 5% CO2. […]
# [3] = Viability of non-tumor fibroblast cell line; assay type: cell-based; settings: human, IMR90 non-tumor fibroblasts; @5 µM
# Method: (§3) The test compound was diluted in PBS.
# (§4) Viability (%) tum orsphere form ation (%)
# IMR90 fibroblasts = assay: Viability of non-tumor fibroblast cell line; assay type: cell-based; settings: IMR90 fibroblasts, 5 μM
# Method: as §3, §4
# [4] = test system: primary CD34+ cells from healthy donors; assay: CFU-E colony-forming unit assay, healthy donors; assay type: cell-based; settings: Homo sapiens
# Method: as §1, §2
# Primary cells. 1x10^6/mL total mononuclear bone marrow cells (as source of CD34+ HSCs) of healthy donors and AML patients were used. They were cultured using Stem SpanTM supplement with pencillin/streptomycin (500 U/ml), TPO (10 µg/mL), SCF (10 µg/mL), FLT3 (10 µg/mL), IL-6 (10 µg/mL) and IL-3 (10 µg/mL). After 24 h fresh medium was added. After 72 h in maintenance cells were ready to start the assays. All cells wer e maintained at 37 °C in a humidified incubator in an atmosphere of 5% CO2.
# Colonospheres, mamospheres and colony formation unit assays. 30.000 cells per well of MCF-7 cells (mamos pheres), HCT-116 cells (colonospheres) and CD34+ cells from patients (colony formation units) were seeded in serum free non- adherent medium or […]
# MethoCult (Stem Cell). […]
structure (smiles),measurement,setting,value
"COc1ccc(C2Cc3[nH]c4ccccc4c3C(CCNCC3CC3)C2N)cc1 (centres unmarked) [4b, 4-{2-[(Cyclopropylmethyl)amino]ethyl}-2-(4-methoxyphenyl)-2,3,4,9-tetrahydro-1H-carbazol-3-amine]",Kd,[1],100 µM and ~100 µM
same,IC50,[2],3.77 µM
same,"viability at 48 h, 5 µM",[3],100%
same,Toxicity in nontumor cells (in words),IMR90 fibroblasts,not toxic
same,IC50,[4],1.73 µM
